Assay results published in US9718790B2, “Triazine derivative and pharmaceutical composition having an analgesic activity comprising the same” (SHIONOGI & CO., LTD., priority 2010, dated 2017).

Molecular target: human P2X3 receptor (Homo sapiens (Human), UniProt P56373)
Assay: Evaluation of human P2X3 receptor inhibitory activity (Fluo-3 calcium fluorescence, FDSS 3000, ATP stimulation);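 note: stimulus was 50 nM ATP with fluorescence followed for 3 min, and the response per well was peak post-ATP fluorescence divided by the reading at measurement start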
Type: cell-based
Conditions: C6BU-1 cells stably expressing human P2X3 receptor

Chain of human P2X3 receptor (P56373 whole entry): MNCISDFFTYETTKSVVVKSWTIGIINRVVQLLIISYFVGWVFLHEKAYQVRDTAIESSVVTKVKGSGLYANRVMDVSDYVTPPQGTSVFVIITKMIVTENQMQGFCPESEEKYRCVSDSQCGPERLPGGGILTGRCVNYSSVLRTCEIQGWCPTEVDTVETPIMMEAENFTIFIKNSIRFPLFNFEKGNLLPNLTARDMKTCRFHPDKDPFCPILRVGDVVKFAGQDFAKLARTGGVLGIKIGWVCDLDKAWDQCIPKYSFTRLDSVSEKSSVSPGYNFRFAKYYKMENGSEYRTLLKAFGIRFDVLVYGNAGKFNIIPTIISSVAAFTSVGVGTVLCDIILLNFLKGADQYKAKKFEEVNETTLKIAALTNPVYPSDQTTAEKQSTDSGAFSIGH

SMILES	IC50 [nM]
CCn1c(=O)[nH]/c(=N\c2ccc(Oc3ccc(S(N)(=O)=O)cc3)cc2)n(Cc2ccc(C)cc2)c1=O [Compound I-2032]	4
CCn1c(=O)[nH]/c(=N\c2ccc(-n3cc(C(=O)OC)ccc3=O)cc2)n(Cc2ccc(Cl)cc2)c1=O [Compound I-2033]	622
CCn1c(=O)[nH]/c(=N\c2ccc(Oc3cccc(C(=O)O)c3)cc2)n(Cc2ccc(C)cc2)c1=O [Compound I-2034]	9
CCn1c(=O)[nH]/c(=N\c2ccc(Oc3ccc(C(=O)O)cc3)cc2)n(Cc2ccc(C)cc2)c1=O [Compound I-2035]	22
CCn1c(=O)[nH]/c(=N\c2ccc(Oc3ccsc3C(=O)OC)cc2)n(Cc2ccc(Cl)cc2)c1=O [Compound I-2037]	340
Cc1[nH]c2ccc(/N=c3\[nH]c(=O)n(CCOC4CCCCO4)c(=O)n3Cc3ccc(Cl)cc3)cc2c1C (centres unmarked) [Compound I-2038]	13
Cc1[nH]c2ccc(/N=c3\[nH]c(=O)n(C[C@H]4COC(C)(C)O4)c(=O)n3Cc3ccc(Cl)cc3)cc2c1C [Compound I-2039]	9
O=c1ccccn1-c1ccc(/N=c2\[nH]c(=O)n(CCOC3CCCCO3)c(=O)n2Cc2ccc(Cl)cc2)cc1 (centres unmarked) [Compound I-2040]	23
CCn1c(=O)[nH]/c(=N\c2ccc(Oc3ccsc3C(=O)O)cc2)n(Cc2ccc(Cl)cc2)c1=O [Compound I-2041]	109
Cc1[nH]c2ccc(/N=c3\[nH]c(=O)n(CCO)c(=O)n3Cc3ccc(Cl)cc3)cc2c1C [Compound I-2042]	23
Cc1[nH]c2ccc(/N=c3\[nH]c(=O)n(C[C@H](O)CO)c(=O)n3Cc3ccc(Cl)cc3)cc2c1C [Compound I-2043]	9
O=c1ccccn1-c1ccc(/N=c2\[nH]c(=O)n(CCO)c(=O)n2Cc2ccc(Cl)cc2)cc1 [Compound I-2044]	125
Cc1ccc(Cn2c(=O)n(CCC(=O)O)c(=O)[nH]/c2=N\c2ccc(Cl)cc2)cc1 [Compound I-2045]	975
Cc1ccc(Cn2c(=O)n(CCC(=O)O)c(=O)[nH]/c2=N\c2cccc(Cl)c2)cc1 [Compound I-2047]	384
Cc1ccc(Cn2c(=O)n(CCC(=O)O)c(=O)[nH]/c2=N\c2ccc(OC(C)C)cc2C)cc1 [Compound I-2048]	491
Cc1ccc(Cn2c(=O)n(CCC(=O)O)c(=O)[nH]/c2=N\c2ccc(OC(C)C)cc2F)cc1 [Compound I-2049]	85
CCOc1ccc(/N=c2\[nH]c(=O)n(CCC(=O)O)c(=O)n2Cc2ccc(C)cc2)c(F)c1F [Compound I-2052]	68
CCOc1cc(F)c(/N=c2\[nH]c(=O)n(CCC(=O)O)c(=O)n2Cc2ccc(C)cc2)c(F)c1 [Compound I-2053]	952
Cc1ccc(Cn2c(=O)n(CCC(=O)O)c(=O)[nH]/c2=N\c2cccc(Cl)c2F)cc1 [Compound I-2054]	611
Cc1ccc(Cn2c(=O)n(C)c(=O)[nH]/c2=N\c2ccc(Oc3ccnc(CO)c3)cc2)cc1 [Compound I-2056]	26
CCn1c(=O)[nH]/c(=N\c2ccc(Oc3ccc(F)c(C(=O)OC)c3)cc2)n(Cc2ccc(Cl)cc2)c1=O [Compound I-2057]	21
COC(=O)c1ccc(Oc2ccc(/N=c3\[nH]c(=O)n(C)c(=O)n3Cc3ccc(Cl)cc3)cc2)cc1 [Compound I-2058]	7
COC(=O)c1cccc(Oc2ccc(/N=c3\[nH]c(=O)n(C)c(=O)n3Cc3ccc(Cl)cc3)cc2)c1 [Compound I-2059]	56

SMILES	IC50 [nM]
Cc1ccc(Cn2c(=O)n(C)c(=O)[nH]/c2=N\c2ccc(Oc3cccc(C(=O)O)c3)cc2)cc1 [Compound I-2060]	22
Cc1ccc(Cn2c(=O)n(C)c(=O)[nH]/c2=N\c2ccc(Oc3ccc(C(=O)O)cc3)cc2)cc1 [Compound I-2061]	148
Cn1c(=O)[nH]/c(=N\c2ccc(Oc3ccc(C(=O)O)cc3)cc2)n(Cc2ccc(Cl)cc2)c1=O [Compound I-2063]	120
Cn1c(=O)[nH]/c(=N\c2ccc(Oc3cccc(C(=O)O)c3)cc2)n(Cc2ccc(Cl)cc2)c1=O [Compound I-2064]	40
CCn1c(=O)[nH]/c(=N\c2ccc(Oc3cccc(CO)c3)cc2)n(Cc2ccc(Cl)cc2)c1=O [Compound I-2065]	54
CCn1c(=O)[nH]/c(=N\c2ccc(Oc3ccc(F)c(C(=O)O)c3)cc2)n(Cc2ccc(Cl)cc2)c1=O [Compound I-2066]	23
CCn1c(=O)[nH]/c(=N\c2ccc(Oc3cccc(C(=O)OC)n3)cc2)n(Cc2ccc(Cl)cc2)c1=O [Compound I-2067]	21
CCOC(=O)OC(=O)c1ccc(Oc2ccc(/N=c3\[nH]c(=O)n(CC)c(=O)n3Cc3ccc(C)cc3)cc2)cc1 [Compound I-2068]	16
Cc1cc2cc(/N=c3\[nH]c(=O)n(CC4COC(C)(C)OC4)c(=O)n3Cc3ccc(Cl)cc3)ccc2o1 [Compound I-2069]	7
Cc1cc2cc(/N=c3\[nH]c(=O)n(CC(CO)CO)c(=O)n3Cc3ccc(Cl)cc3)ccc2o1 [Compound I-2070]	19
Cc1oc2ccc(/N=c3\[nH]c(=O)n(CC4COC(C)(C)OC4)c(=O)n3Cc3ccc(Cl)cc3)cc2c1C [Compound I-2071]	8
Cc1oc2ccc(/N=c3\[nH]c(=O)n(CC(CO)CO)c(=O)n3Cc3ccc(Cl)cc3)cc2c1C [Compound I-2072]	8
Cc1oc2ccc(/N=c3\[nH]c(=O)n(CCCOC4CCCCO4)c(=O)n3Cc3ccc(Cl)cc3)cc2c1C (centres unmarked) [Compound I-2073]	10
Cc1oc2ccc(/N=c3\[nH]c(=O)n(CCCO)c(=O)n3Cc3ccc(Cl)cc3)cc2c1C [Compound I-2074]	7
CCn1c(=O)[nH]/c(=N\c2ccc(Oc3cncc(CO)c3)cc2)n(Cc2ccc(Cl)cc2)c1=O [Compound I-2075]	21
CCn1c(=O)[nH]/c(=N\c2ccc(Oc3cncc(C(=O)OC)c3)cc2)n(Cc2ccc(C)cc2)c1=O [Compound I-2076]	7
O=c1[nH]/c(=N\c2ccc(Oc3cncc(CO)c3)cc2)n(Cc2ccc(Cl)cc2)c(=O)n1CCOC1CCCCO1 (centres unmarked) [Compound I-2077]	3
CCn1c(=O)[nH]/c(=N\c2ccc(Oc3cncc(C(=O)O)c3)cc2)n(Cc2ccc(C)cc2)c1=O [Compound I-2078]	8
O=c1[nH]/c(=N\c2ccc(Oc3cncc(CO)c3)cc2)n(Cc2ccc(Cl)cc2)c(=O)n1CCO [Compound I-2079]	38
Cc1ccc(Cn2c(=O)n(CCC(=O)O)c(=O)[nH]/c2=N\c2cc(C(F)(F)F)ccc2C)cc1 [Compound I-2082]	833
Cc1ccc(Cn2c(=O)n(CCC(=O)O)c(=O)[nH]/c2=N\c2cccc(C(F)(F)F)c2C)cc1 [Compound I-2085]	852
Cc1ccc(Cn2c(=O)n(CCC(=O)O)c(=O)[nH]/c2=N\c2cccc(C(F)(F)F)c2F)cc1 [Compound I-2086]	234
CCn1c(=O)[nH]/c(=N\c2ccc(Oc3cccc(C(=O)O)n3)cc2)n(Cc2ccc(Cl)cc2)c1=O [Compound I-2095]	5

SMILES	IC50 [nM]
CCn1c(=O)[nH]/c(=N\c2ccc(Oc3nccc(OC)n3)cc2)n(Cc2ccc(Cl)cc2)c1=O [Compound I-2096]	35
Cc1nc2ccc(/N=c3\[nH]c(=O)n(C[C@H](O)CO)c(=O)n3CC3CCC(C)CC3)cc2s1 (some centres unmarked) [Compound I-2097]	5
Cc1nc2ccc(/N=c3\[nH]c(=O)n(CCO)c(=O)n3CC3CCC(C)CC3)cc2s1 (centres unmarked) [Compound I-2098]	4
Cn1c(=O)[nH]/c(=N\c2ccc(Oc3ccnc(C(=O)O)c3)cc2)n(Cc2ccc(Cl)cc2)c1=O [Compound I-2099]	8
Cc1ccc(Cn2c(=O)n(C)c(=O)[nH]/c2=N\c2ccc(Oc3ccnc(C(=O)O)c3)cc2)cc1 [Compound I-2100]	7
CNC(=O)c1cc(Oc2ccc(/N=c3\[nH]c(=O)[nH]c(=O)n3Cc3ccc(Cl)cc3)cc2F)ccn1 [Compound I-2101]	26
Cc1ccc(Cn2c(=O)[nH]c(=O)[nH]/c2=N\c2ccc(Oc3cncc(C(=O)O)c3)cc2)cc1 [Compound I-2102]	34
Cn1c(=O)[nH]/c(=N\c2ccc(Oc3cncc(C(=O)O)c3)cc2)n(Cc2ccc(Cl)cc2)c1=O [Compound I-2103]	20
CCn1c(=O)[nH]/c(=N\c2ccc(Oc3ccc(C(=O)OC)nc3)cc2)n(Cc2ccc(Cl)cc2)c1=O [Compound I-2105]	1
CCn1c(=O)[nH]/c(=N\c2ccc(Oc3ccc(C(=O)OC)nc3)cc2)n(Cc2ccc(C)cc2)c1=O [Compound I-2106]	2
CCn1c(=O)[nH]/c(=N\c2ccc(Oc3cc(C(N)=O)on3)cc2)n(Cc2ccc(Cl)cc2)c1=O [Compound I-2107]	7
CCn1c(=O)[nH]/c(=N\c2ccc(Oc3nccc(O)n3)cc2)n(Cc2ccc(Cl)cc2)c1=O [Compound I-2108]	26
CC(C)Oc1ccc(/N=c2\[nH]c(=O)n(CCN(CCO)C(=O)OC(C)(C)C)c(=O)n2Cc2ccc(Cl)cc2)cc1F [Compound I-2109]	11
CCn1c(=O)[nH]/c(=N\c2ccc(Oc3ccnc(C(=O)NC)c3)cc2)n(Cc2ccc(F)cc2)c1=O [Compound I-2110]	12
CCn1c(=O)[nH]/c(=N\c2ccc(Oc3cncc(C(=O)OC)c3)cc2)n(Cc2ccc(F)cc2)c1=O [Compound I-2111]	44
CCn1c(=O)[nH]/c(=N\c2ccc(Oc3cncc(C(=O)O)c3)cc2)n(Cc2ccc(F)cc2)c1=O [Compound I-2112]	47
COC(=O)c1cc(Oc2ccc(/N=c3\[nH]c(=O)n(CCOC4CCCCO4)c(=O)n3Cc3ccc(Cl)cc3)cc2)no1 (centres unmarked) [Compound I-2113]	1
CCn1c(=O)[nH]/c(=N\c2ccc(Oc3ccc(CO)nc3)cc2)n(Cc2ccc(Cl)cc2)c1=O [Compound I-2114]	7
CCn1c(=O)[nH]/c(=N\c2ccc(Oc3ccc(C(=O)O)nc3)cc2)n(Cc2ccc(Cl)cc2)c1=O [Compound I-2115]	18
CCn1c(=O)[nH]/c(=N\c2ccc(Oc3ccc(C(=O)O)nc3)cc2)n(Cc2ccc(C)cc2)c1=O [Compound I-2116]	15
O=C(O)c1cc(Oc2ccc(/N=c3\[nH]c(=O)n(CCO)c(=O)n3Cc3ccc(Cl)cc3)cc2)no1 [Compound I-2117]	23

Same assay, conditions: human P2X3 receptor, Test Example 1

SMILES	IC50 [nM]
Cc1ccc(Cn2c(=O)n(CCC(=O)O)c(=O)[nH]/c2=N\c2c(Cl)ccc(C(F)(F)F)c2C)cc1 [Compound I-2090]	< 4
